Measurements as given in patent US8952163B2, “Substituted hydroxamic acids and uses thereof” (Millennium Pharmaceuticals, Inc., priority 2010, dated 2015).

Target: T1, purified human HDAC6 (Homo sapiens, UniProt Q9UBN7)
T1 construct: purchased BPS Bioscience 5006
T1 sequence (Q9UBN7 1-1215): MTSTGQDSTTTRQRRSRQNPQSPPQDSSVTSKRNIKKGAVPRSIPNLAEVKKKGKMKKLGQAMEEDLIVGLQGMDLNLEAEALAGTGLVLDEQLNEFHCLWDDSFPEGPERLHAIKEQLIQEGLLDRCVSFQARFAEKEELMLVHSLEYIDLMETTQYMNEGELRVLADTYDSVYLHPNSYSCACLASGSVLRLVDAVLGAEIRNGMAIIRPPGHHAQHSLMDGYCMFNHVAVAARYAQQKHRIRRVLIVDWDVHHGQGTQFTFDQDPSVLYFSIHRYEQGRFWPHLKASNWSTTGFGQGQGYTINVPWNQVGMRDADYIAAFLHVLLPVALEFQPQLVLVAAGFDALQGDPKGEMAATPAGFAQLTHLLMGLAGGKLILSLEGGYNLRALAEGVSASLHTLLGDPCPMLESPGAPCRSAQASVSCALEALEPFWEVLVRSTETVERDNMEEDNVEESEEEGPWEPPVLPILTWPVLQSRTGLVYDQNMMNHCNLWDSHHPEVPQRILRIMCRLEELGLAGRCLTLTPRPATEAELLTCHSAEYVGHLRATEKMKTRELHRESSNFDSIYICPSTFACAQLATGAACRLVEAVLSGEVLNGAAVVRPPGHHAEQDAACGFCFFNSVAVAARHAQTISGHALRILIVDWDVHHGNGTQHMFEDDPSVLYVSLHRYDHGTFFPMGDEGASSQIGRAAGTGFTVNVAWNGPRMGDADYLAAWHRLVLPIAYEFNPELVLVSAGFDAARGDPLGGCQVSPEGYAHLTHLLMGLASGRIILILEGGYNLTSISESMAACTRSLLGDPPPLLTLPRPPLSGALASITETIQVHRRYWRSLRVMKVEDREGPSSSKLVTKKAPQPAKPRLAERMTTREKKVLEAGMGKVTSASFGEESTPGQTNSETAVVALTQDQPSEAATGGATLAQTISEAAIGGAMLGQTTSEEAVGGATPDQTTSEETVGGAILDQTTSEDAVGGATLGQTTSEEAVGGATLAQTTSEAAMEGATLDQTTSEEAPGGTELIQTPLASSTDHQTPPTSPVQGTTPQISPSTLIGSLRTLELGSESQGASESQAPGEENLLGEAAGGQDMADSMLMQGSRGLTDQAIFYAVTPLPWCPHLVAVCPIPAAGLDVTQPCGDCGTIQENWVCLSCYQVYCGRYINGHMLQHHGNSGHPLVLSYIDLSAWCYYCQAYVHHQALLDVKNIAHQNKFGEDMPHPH
Test: HDAC6 Enzyme Assay
Assay type: biochemical
Conditions: test compound at 1.235 μM; substrate Ac-Arg-Gly-Lys(Ac)-AMC, 1 hour at 30° C.; read-out: Percent Inhibition at 1.235 μM
Method: To measure the inhibition of HDAC6 activity, purified human HDAC6 (BPS Bioscience; Cat. No. 5006) is incubated with substrate Ac-Arg-Gly-Lys(Ac)-AMC peptide (Bachem Biosciences; Cat. No. I-1925) for 1 hour at 30° C. in the presence of test compounds or vehicle DMSO control. The reaction is stopped with the HDAC inhibitor trichostatin A (Sigma; Cat. No. T8552) and the amount of Arg-Gly-Lys-AMC generated is quantitated by digestion with trypsin (Sigma; Cat. No. T1426) and subsequent measurement of the amount of AMC released using a fluorescent plate reader (Pherastar, BMG Technologies) set at Ex 340 nm and Em 460 nm. Concentration response curves are generated by calculating the fluorescence increase in test compound-treated samples relative to DMSO-treated controls, and percentage inhibition values at a single concentration or enzyme inhibition (IC50) values are determined from those curves. One skilled in the art will appreciate that the values generated either as percentage inhibition at a single concentration or IC50 values are subject to experimental variation.

Structure (SMILES) | inhibition at 1.235 µM
CC(C)(C)C(=O)N1CCc2ncc(C(=O)NO)cc2C1 [Compound I-30, 6-(2,2-dimethylpropanoyl)-N-hydroxy-5,6,7,8-tetrahydro-1,6-naphthyridine-3-carboxamide] | 85%
O=C(NO)c1cnc2c(c1)CN(C(=O)C13CC4CC(CC(C4)C1)C3)CC2 [Compound I-31, 6-[1-adamantylcarbonyl]-N-hydroxy-5,6,7,8-tetrahydro-1,6-naphthyridine-3-carboxamide] | 93.8%
COc1ccc(C(=O)N2CCc3ncc(C(=O)NO)cc3C2)cc1 [Compound I-32, N-hydroxy-6-(4-methoxybenzoyl)-5,6,7,8-tetrahydro-1,6-naphthyridine-3-carboxamide] | 93%
O=C(NO)c1ccc2c(n1)CCN(C(=O)c1ccc(Cl)cc1)C2 [Compound I-33, 6-(4-chlorobenzoyl)-N-hydroxy-5,6,7,8-tetrahydro-1,6-naphthyridine-2-carboxamide] | 68.8%
O=C(NO)c1ccc2c(n1)CCN(C(=O)Nc1ccccc1-c1ccccc1)C2 [Compound I-34, N^6-biphenyl-2-yl-N^2-hydroxy-7,8-dihydro-1,6-naphthyridine-2,6(5H)-dicarboxamide] | 48.2%
COc1ccc(C(=O)N2CCc3nc(C(=O)NO)ccc3C2)cc1 [Compound I-35, N-hydroxy-6-(4-methoxybenzoyl)-5,6,7,8-tetrahydro-1,6-naphthyridine-2-carboxamide] | 67%
CCCNC(=O)N1CCc2nc(C(=O)NO)ccc2C1 [Compound I-36, N^2-hydroxy-N^6-propyl-7,8-dihydro-1,6-naphthyridine-2,6(5H)-dicarboxamide] | 26.5%
O=C(NO)c1cnc2c(c1)CCN(C(=O)c1[nH]c3ccccc3c1-c1ccccc1)C2 [Compound I-37, N-hydroxy-7-[(3-phenyl-1H-indol-2-yl)carbonyl]-5,6,7,8-tetrahydro-1,7-naphthyridine-3-carboxamide] | 93.7%
O=C(NO)c1ccc2c(n1)CCN(Cc1ccccc1)C2 [Compound I-38, 6-benzyl-N-hydroxy-5,6,7,8-tetrahydro-1,6-naphthyridine-2-carboxamide] | 60.2%
Cn1cccc1C(=O)N1CCc2ncc(C(=O)NO)cc2C1 [Compound I-39, N-hydroxy-6-[(1-methyl-1H-pyrrol-2-yl)carbonyl]-5,6,7,8-tetrahydro-1,6-naphthyridine-3-carboxamide] | 92.5%
CC(C)(C)c1ccccc1NC(=O)N1CCc2nc(C(=O)NO)ccc2C1 [Compound I-40, N^6-(2-tert-butylphenyl)-N^2-hydroxy-7,8-dihydro-1,6-naphthyridine-2,6(5H)-dicarboxamide] | 50.4%
CC(C)(C)c1ccc(C(=O)N2CCc3cc(C(=O)NO)cnc3C2)cc1 [Compound I-41, 7-(4-tert-butylbenzoyl)-N-hydroxy-5,6,7,8-tetrahydro-1,7-naphthyridine-3-carboxamide] | 93.4%
O=C(NO)c1cnc2c(c1)CN(C(=O)c1ccc(-c3ccccn3)s1)CC2 [Compound I-42, N-hydroxy-6-[(5-pyridin-2-yl-2-thienyl)carbonyl]-5,6,7,8-tetrahydro-1,6-naphthyridine-3-carboxamide] | 97.5%
Cc1onc(-c2ccccc2)c1NC(=O)N1CCc2nc(C(=O)NO)ccc2C1 [Compound I-43, N^2-hydroxy-N^6-(5-methyl-3-phenylisoxazol-4-yl)-7,8-dihydro-1,6-naphthyridine-2,6(5H)-dicarboxamide] | 23.4%
O=C(NO)c1cnc2c(c1)CN(C(=O)c1cc3ccccc3o1)CC2 [Compound I-44, 6-(1-benzofuran-2-ylcarbonyl)-N-hydroxy-5,6,7,8-tetrahydro-1,6-naphthyridine-3-carboxamide] | 94.9%
CC(C)(C)NC(=O)N1CCc2nc(C(=O)NO)ccc2C1 [Compound I-45, N^6-(tert-butyl)-N^2-hydroxy-7,8-dihydro-1,6-naphthyridine-2,6(5H)-dicarboxamide] | 39%
CC(C)(C)C(=O)N1CCc2nc(C(=O)NO)ccc2C1 [Compound I-46, 6-(2,2-dimethylpropanoyl)-N-hydroxy-5,6,7,8-tetrahydro-1,6-naphthyridine-2-carboxamide] | 59%
CCc1cccc(CC)c1NC(=O)N1CCc2nc(C(=O)NO)ccc2C1 [Compound I-47, N^6-(2,6-diethylphenyl)-N^2-hydroxy-7,8-dihydro-1,6-naphthyridine-2,6(5H)-dicarboxamide] | 34.3%
COc1ccc(C(=O)N2CCc3cc(C(=O)NO)cnc3C2)cc1 [Compound I-48, N-hydroxy-7-(4-methoxybenzoyl)-5,6,7,8-tetrahydro-1,7-naphthyridine-3-carboxamide] | 91.1%
O=C(NO)c1ccc2c(n1)CCN(C(=O)c1cc3ccccc3s1)C2 [Compound I-49, 6-(1-benzothien-2-ylcarbonyl)-N-hydroxy-5,6,7,8-tetrahydro-1,6-naphthyridine-2-carboxamide] | 94.1%
CC(C)(C)c1ccc(C(=O)N2CCc3ncc(C(=O)NO)cc3C2)cc1 [Compound I-50, 6-(4-tert-butylbenzoyl)-N-hydroxy-5,6,7,8-tetrahydro-1,6-naphthyridine-3-carboxamide] | 95.1%
O=C(NO)c1ccc2c(n1)CCN(C(=O)Nc1ccccc1)C2 [Compound I-51, N^2-hydroxy-N^6-phenyl-7,8-dihydro-1,6-naphthyridine-2,6(5H)-dicarboxamide] | 63.4%
O=C(NO)c1cnc2c(c1)CN(C(=O)c1cc3ccccc3s1)CC2 [Compound I-52, 6-(1-benzothien-2-ylcarbonyl)-N-hydroxy-5,6,7,8-tetrahydro-1,6-naphthyridine-3-carboxamide] | 97.4%
O=C(NO)c1cnc2c(c1)CN(C(=O)c1ccc(-c3ccccc3)cc1)CC2 [Compound I-53, 6-(biphenyl-4-ylcarbonyl)-N-hydroxy-5,6,7,8-tetrahydro-1,6-naphthyridine-3-carboxamide] | 96.9%
O=C(NO)c1ccc2c(n1)CCN(C(=O)Nc1ccc(-c3ccccc3)s1)C2 [Compound I-54, N^2-hydroxy-N^6-(5-phenyl-2-thienyl)-7,8-dihydro-1,6-naphthyridine-2,6(5H)-dicarboxamide] | 67.2%
O=C(NO)c1ccc2c(n1)CCN(C(=O)NCCc1ccccc1)C2 [Compound I-55, N^2-hydroxy-N^6-(2-phenylethyl)-7,8-dihydro-1,6-naphthyridine-2,6(5H)-dicarboxamide] | 58.3%
CC1(C(=O)N2CCc3ncc(C(=O)NO)cc3C2)CCCCC1 [Compound I-56, N-hydroxy-6-[(1-methylcyclohexyl)carbonyl]-5,6,7,8-tetrahydro-1,6-naphthyridine-3-carboxamide] | 93%
CCCCOc1ccc(S(=O)(=O)N2CCc3ncc(C(=O)NO)cc3C2)cc1 [Compound I-57, 6-[(4-butoxyphenyl)sulfonyl]-N-hydroxy-5,6,7,8-tetrahydro-1,6-naphthyridine-3-carboxamide] | 94.1%
CCCCS(=O)(=O)N1CCc2ncc(C(=O)NO)cc2C1 [Compound I-58, 6-(butylsulfonyl)-N-hydroxy-5,6,7,8-tetrahydro-1,6-naphthyridine-3-carboxamide] | 94.5%
